Assay results published in patent publication US8318736B2, “HIV inhibiting 5,6-substituted pyrimidines” (Janssen R&D Ireland, priority 2006, dated 2012).

Assays:
[1] = tested on: HIV strain IIIB (wild type); experiment: microbe, parasite or virus in culture; settings: for IIIB pEC50 (-log EC50): wild type HIV strain IIIB, MT4 LTR-EGFP cells, three days after infection; for pSI (IIIB) (-log SI; SI = ratio of CC50 to EC50): strain IIIB, CC50 in mock-infected MT4 CMV-EGFP cells; for EC50: Human immunodeficiency virus 1, IIIB, 72 h, read-out: IIIB pEC50 (-log EC50) (converted)
Method: Compounds of the invention were tested for their potency against wild type virus and clinically isolated HIV strains harboring one or more mutations associated with resistance to reverse transcriptase inhibitors. Antiviral activity was evaluated using a cellular assay performed according to the following procedure.
The human T-cell line MT4 was engineered with Green Fluorescent Protein (GFP) and a HIV-specific promoter, HIV-1 long terminal repeat (LTR). This cell line, designated MT4 LTR-EGFP, can be used for the in vitro evaluation of anti-HIV activity of investigational compounds. In HIV-1 infected cells, the Tat protein is produced, which upregulates the LTR promotor and eventually leads to stimulation of the GFP reporter production, allowing to measure ongoing HIV-infection fluorometrically.
Analogously, MT4 cells were engineered with GFP and the constitutional cytomegalovirus (CMV) promotor. This cell line was designated MT4 CMV-EGFP, and can be used for the in vitro evaluation of cytotoxicity of investigational compounds. […] Cytotoxic investigational compounds reduce GFP levels of mock-infected MT4 CMV-EGFP cells.
The ratio of CC50 to EC50 is defined as the selectivity index (SI) and is an indication of the selectivity of the anti-HIV activity of the inhibitor. The ultimate monitoring of HIV-1 infection and cytotoxicity was done using a scanning microscope. […] Measurements were done before cell necrosis, which usually takes place about five days after infection, in particular measurements were performed three days after infection.
The columns IIIB, L100I, etc. in the table list the pEC50 (−log EC50) values against various strains IIIB, L100I, etc.; pSI lists the −log SI values.
Strain IIIB is wild type HIV strain.

[2] = biological target: HIV strain MDR (L100I, K103N, Y181C, E138G, V1791, L2214F, V278V/I and A327A/V in HIV reverse transcriptase); experiment: microbe, parasite or virus in culture; format: cell-based, HIV-1; settings: for MDR pEC50 (-log EC50): MDR strain, MT4 LTR-EGFP cells; for EC50: Human immunodeficiency virus 1, read-out: MDR pEC50 (-log EC50) (converted)
Excerpt: (§1) Image analysis allowed very sensitive detection of viral infection.
“MDR” refers to a strain that contains mutations L100I, K103N, Y181C, E138G, V1791, L2214F, V278V/I and A327A/V in HIV reverse transcriptase.

HIV strain L100I + K103N = experiment: microbe, parasite or virus in culture; format: cell-based, HIV-1; settings: for L100I + K103N pEC50 (-log EC50): L100I + K103N strain, MT4 LTR-EGFP cells; for EC50: Human immunodeficiency virus 1, 72 h, read-out: L100I + K103N pEC50 (-log EC50) (converted)
Excerpt: as §1

HIV strain K103N + Y181C [3] = experiment: microbe, parasite or virus in culture; format: cell-based, HIV-1; settings: Human immunodeficiency virus 1, 72 h, read-out: K103N + Y181C pEC50 (-log EC50) (converted)
Method: (§2) The ratio of CC50 to EC50 is defined as the selectivity index (SI) and is an indication of the selectivity of the anti-HIV activity of the inhibitor. The ultimate monitoring of HIV-1 infection and cytotoxicity was done using a scanning microscope. Image analysis allowed very sensitive detection of viral infection. Measurements were done before cell necrosis, which usually takes place about five days after infection, in particular measurements were performed three days after infection.

HIV strain K103N + Y181C [4] = tested on: HIV strain K103N + Y181C (second column with this head); experiment: microbe, parasite or virus in culture; format: cell-based, HIV-1; settings: Human immunodeficiency virus 1, 72 h, read-out: K103N + Y181C pEC50 (-log EC50) (converted)
Method: as §2

SMILES | melting point [°C] | IIIB pEC50 (-log EC50) [1] | MDR pEC50 (-log EC50) [2] | L100I + K103N pEC50 (-log EC50) (HIV strain L100I + K103N) | pSI (IIIB) (-log SI; SI = ratio of CC50 to EC50) [1] | EC50 [1] [nM] | EC50 [2] [nM] | EC50 (HIV strain L100I + K103N) [nM] | EC50 (HIV strain K103N + Y181C [3]) [nM] | EC50 (HIV strain K103N + Y181C [4]) [nM]
COCc1nc(Nc2ccc(C#N)cc2)nc(Nc2ccc(/C=C/C#N)cc2)c1/C=C/c1ccc(C)cc1 | 139 | – | – | – | – | – | – | – | – | –
COCc1nc(Nc2ccc(C#N)cc2)nc(Nc2ccc(/C=C/C#N)cc2)c1/C=C/c1ccc(OC)cc1 | 207 | – | – | – | – | – | – | – | – | –
C=C(OCC)c1c(COC)nc(Nc2ccc(C#N)cc2)nc1Nc1ccc(/C=C/C#N)cc1 | 102 | – | – | – | – | – | – | – | – | –
COCc1nc(Nc2ccc(C#N)cc2)nc(Nc2ccc(/C=C/C#N)cc2)c1C#Cc1cccnc1 | 210 | – | – | – | – | – | – | – | – | –
COCCNC(=O)c1c(COC)nc(Nc2ccc(C#N)cc2)nc1Nc1c(C)cc(C=C(C)C#N)cc1C (mixture of isomers) [Compound 32] | – | 8.48 | 7.05 | 7.80 | – | – | – | – | – | –
COCc1nc(Nc2ccc(C#N)cc2)nc(Oc2c(C)cc(C=CC#N)cc2C)c1C(=O)NCc1ccncc1 (mixture of isomers) [Compound 33] | – | 8.40 | 5.91 | 7.03 | 3.54 | – | – | – | – | –
COCc1nc(Nc2ccc(C#N)cc2)nc(Oc2c(C)cc(C=C(C)C#N)cc2C)c1C(=O)NCc1ccncc1 (mixture of isomers) [Compound 34] | – | 8.38 | 5.81 | 6.49 | 3.22 | – | – | – | – | –
COCCNC(=O)c1c(COC)nc(Nc2ccc(C#N)cc2)nc1Oc1c(C)cc(C=CC#N)cc1C (mixture of isomers) [Compound 35] | – | 8.54 | 6.18 | 7.09 | 3.76 | – | – | – | – | –
COCc1nc(Nc2ccc(C#N)cc2)nc(Nc2c(C)cc(/C=C/C#N)cc2C)c1-c1cnccc1OC [Compound 1] | 120 | – | – | – | >3.28 | 12.9 | 2400 | 63.1 | 93.3 | 83.2
COCc1nc(Nc2ccc(C#N)cc2)nc(Nc2c(C)cc(/C=C/C#N)cc2C)c1-c1cccnc1 [Compound 2] | 216 | – | – | – | 3.65 | 3.02 | 240 | 4.17 | 21.4 | 15.8
COCc1nc(Nc2ccc(C#N)cc2)nc(Nc2c(C)cc(/C=C/C#N)cc2C)c1-c1ccncc1 [Compound 3] | 172 | – | – | – | >3.88 | 3.31 | 355 | 9.33 | 29.5 | 22.4
COCc1nc(Nc2ccc(C#N)cc2)nc(Nc2c(C)cc(/C=C/C#N)cc2C)c1-c1cccs1 [Compound 4] | 130 | – | – | – | 3.73 | 4.57 | 138 | 3.8 | 15.5 | 18.6
COCc1nc(Nc2ccc(C#N)cc2)nc(Nc2c(C)cc(/C=C/C#N)cc2C)c1-c1ccsc1 [Compound 5] | 125 | – | – | – | >3.76 | 4.37 | 324 | 5.01 | 21.4 | 25.1
